The text below walks through data of patent publication US20080153866A1, “Amorphous Taclolimus Solid Dispersion Having an Enhanced Solubility and Pharmaceutical Composition Comprising Same” (Hinmi Pharm Co., Ltd, priority 2005, published 2008).

The nature of data set [1]: Thermodynamic stability test (endothermic peak in DSC scan). In kind it is physicochemical. From the text: The mixture of Comparative Example 1, solid dispersion of Example 1 and crystalline taclolimus were each subjected to a thermodynamic stability test by examining the change in the endothermic peak in its DSC scan. The temperatures representing respective endothermic peaks are represented in Table 17, and the overall DSC results are shown in FIG. 1.

The conditions of data set [2]: cited from earlier work.

Take `C=CC[C@@H]1/C=C(\C)C[C@H](C)C[C@H](OC)[C@H]2O[C@@](O)(C(=O)C(=O)N3CCCCC3C(=O)O[C@H](/C(C)=C/C3CC[C@@H](O)[C@H](OC)C3)[C@H](C)[C@@H](O)CC1=O)[C@H](C)C[C@@H]2OC` (stereo partly drawn) [Taclolimus, (—)-(1R,9S,13R,14S,17R,18E,21S,23S,24R,25S,27R)-17-allyl-1,14-dihydroxy-12-[(E)-2-[(1R,3R,4R)-4-hydroxy-3-methoxycyclohexyl]-1-methylvinyl]-23,25-dimethoxy-13,19,21,27-tetramethyl-11,28-dioxa-4-azatricyclo[22.3.1.0^4.9]octacos-18-ene-2,3,10,16-tetrone hydrate]: the Endothermic peak temperature in data set [1] amounted to 127.0 °C. The “Solubility in organic solvents” value in data set [2] (organic solvents such as anhydrous ethanol) is given as “very soluble”. The Solubility in water entry in data set [2] (water) is given as “insoluble in water”.
